Experimental data reported in US10759779B2, “Crystalline form of orexin receptor antagonist, processes for preparation thereof and use thereof” (priority 2017, dated 2020).

Tests used:
Type in all cases: physicochemical
[1] = Hygroscopicity by dynamic vapor sorption (DVS)
Method: Thermo gravimetric analysis (TGA) data in the present disclosure were acquired by a TA Q500. The parameters of the TGA method of the present disclosure were as follows: • Heating rate: 10° C./min • Purge gas: nitrogen • Dynamic Vapor Sorption (DVS) is measured via a SMS (Surface Measurement Systems Ltd.) intrinsic DVS instrument. Typical Parameters for DVS test are as follows: • Temperature: 25° C. • Gas and flow rate: N2, 200 mL/min • dm/dt: 0.002%/min • RH range: 0% RH to 95% RH
Dynamic vapor sorption (DVS) was applied to measure hygroscopicity of Form CS2 with about 10 mg of samples. The weight gains at each relative humidity were recorded in a cycle of 0-95%-0 RH. The XRPD pattern overlay of Form CS2 before and after DVS test is presented in FIG. 14 (top: XRPD pattern before DVS; bottom: XRPD pattern after DVS). […] The weight gain under 80% RH is 0.21%.

[2] = Flowability (bulk/tapped density, compressibility index); details: for Compressibility index: c=(ρf−ρ0)/ρf*100%; for Flowability: class by compressibility index
Method: Compressibility, also known as compressibility index is usually used to evaluate the flowability of powder and granular intermediates during the formulation process. A certain amount of powder was added into a measuring cylinder and bulk volume was recorded. Then the measuring cylinder was tapped to make the powder in the tightest state and the tapped volume was recorded. The bulk density (ρ0), tapped density (ρf) were calculated, and compressibility index was calculated according to c=(ρf−ρ0)/ρf. Compressibility index or Carr Index is an important indicator for evaluating the flowability of powder.
Compressibility index test method is as follows: Compressibility index was calculated according to bulk density ρ0 and tapped density ρf of Form CS2 and the amorphous solid of the prior art with c=(ρf−ρ0)/ρf*100%.

[3] = Grinding stability of Form CS2; details: ground manually for 5 minutes in a mortar, XRPD
Method: Form CS2 was ground manually for 5 minutes in a mortar. The XRPD pattern of the solids before and after grinding are presented in FIG. 12 (top: XRPD pattern before grinding; bottom: XRPD pattern after grinding). […] Form CS2 has good grinding stability.

[4] = Compressibility (tablet hardness, tensile strength)
Method: 80 mg of Form CS2 was weighted and added into the dies of φ6 mm round tooling, compressed at 10 KN. The round tablet was stored in a desiccator for 24 hours until complete elastic recovery. Hardness (H) was tested with a tablet hardness tester. Diameter (D) and thickness (L) were tested with caliper. Tensile strength of the powder was calculated with the following formula: T=2H/πDL. Under a certain force, the greater the tensile strength, the better the compressibility.

[5] = Adhesiveness (material sticking to the punch); details: 30 mg, φ8 mm round tooling, 10 KN, 30s
Method: 30 mg of Form CS2 was weighed and added into the dies of φ8 mm round tooling, tableted at 10 KN and held for 30s. The amount of material sticking to the punch was weighed. The compression was repeated twice and the cumulative amount, maximum amount and average amount of material sticking to the punch during the compression process were recorded.

[6] = 80 mg tablet, φ6 mm, 10 KN, after 24 hours

Row | Compound | Weight gain under 80% Relative Humidity ([1]; DVS, 25° C.) [%] | Crystalline form after DVS ([1]; cycle of 0-95%-0 RH, XRPD) | Bulk density (ρ0) [2] [g/mL] | Tapped density (ρf) [2] [g/mL] | Compressibility index [2] [%] | Flowability [2] | Crystalline form after grinding [3] | Diameter [4, 6] [mm] | Hardness [4, 6] [N] | Thickness [4, 6] [mm] | Tensile strength ([4]; T=2H/πDL) [MPa] | Average amount of material sticking to the punch [5] [mg] | Cumulative amount of material sticking to the punch [5] [mg] | Maximum amount of material sticking to the punch [5] [mg]
1 | Cc1ncc(OC[C@@]2(c3cccc(F)c3)C[C@H]2C(=O)Nc2ccc(F)cn2)c(C)n1 [Form CS2, (1R,2S)-2-{[(2,4-dimethylpyrimidin-5-yl)oxy]methyl}-2-(3-fluorophenyl)-N-(5-fluoropyridin-2-yl)cyclopropanecarboxamide] | 0.21 | does not change after DVS | 0.263 | 0.351 | 25 | Passable (21-25) | does not change after grinding | 6.06 | 8.4 | 2.40 | 0.37 | 0.22 | 0.44 | 0.74
2 | Cc1ncc(OC[C@@]2(c3cccc(F)c3)C[C@H]2C(=O)Nc2ccc(F)cn2)c(C)n1 [Amorphous solid, (1R,2S)-2-{[(2,4-dimethylpyrimidin-5-yl)oxy]methyl}-2-(3-fluorophenyl)-N-(5-fluoropyridin-2-yl)cyclopropanecarboxamide, reference compound] | – | – | 0.196 | 0.274 | 28 | Poor | – | – | – | – | – | – | – | –
